Laboratory results as given in patent US20240101540A1, “TARGETED PROTEIN DEGRADATION OF PARP14 FOR USE IN THERAPY” (Ribon Therapeutics, Inc., priority 2022, published 2024).
Counter-ions that a name gives are not always drawn.

Target: T1, HiBiT tagged PARP14 (Homo sapiens, UniProt Q460N5)
T1 construct: engineered to contain a HiBiT tag on both alleles of the PARP14 gene; endogenous in cells; host or cells: Jurkat cells stably transfected with LgBiT (Promega), PARP14 locus edited by CRISPR/Cas9
Test: HiBiT assay for the degradation of PARP14 (HiBiT tagged PARP14 in LgBiT expressing Jurkat cells, 2 or 24 hours)
Type: cell-based
Details: Assay B (Example B): HiBiT tagged PARP14 degradation in LgBiT expressing Jurkat cells, read-out: DC50
How it was run: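 Jurkat cells stably expressing LgBiT with CRISPR knock-in of C-terminal HiBiT on both PARP14 alleles, 5,000 cells/well, treated with compound dose-response at 37 °C for 2 or 24 h. Live Cell Substrate luminescence normalised to 0.1% DMSO wells; DC50 from 4-parameter fit with floating top, bottom, Hill.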

T1 sequence (Q460N5 whole entry): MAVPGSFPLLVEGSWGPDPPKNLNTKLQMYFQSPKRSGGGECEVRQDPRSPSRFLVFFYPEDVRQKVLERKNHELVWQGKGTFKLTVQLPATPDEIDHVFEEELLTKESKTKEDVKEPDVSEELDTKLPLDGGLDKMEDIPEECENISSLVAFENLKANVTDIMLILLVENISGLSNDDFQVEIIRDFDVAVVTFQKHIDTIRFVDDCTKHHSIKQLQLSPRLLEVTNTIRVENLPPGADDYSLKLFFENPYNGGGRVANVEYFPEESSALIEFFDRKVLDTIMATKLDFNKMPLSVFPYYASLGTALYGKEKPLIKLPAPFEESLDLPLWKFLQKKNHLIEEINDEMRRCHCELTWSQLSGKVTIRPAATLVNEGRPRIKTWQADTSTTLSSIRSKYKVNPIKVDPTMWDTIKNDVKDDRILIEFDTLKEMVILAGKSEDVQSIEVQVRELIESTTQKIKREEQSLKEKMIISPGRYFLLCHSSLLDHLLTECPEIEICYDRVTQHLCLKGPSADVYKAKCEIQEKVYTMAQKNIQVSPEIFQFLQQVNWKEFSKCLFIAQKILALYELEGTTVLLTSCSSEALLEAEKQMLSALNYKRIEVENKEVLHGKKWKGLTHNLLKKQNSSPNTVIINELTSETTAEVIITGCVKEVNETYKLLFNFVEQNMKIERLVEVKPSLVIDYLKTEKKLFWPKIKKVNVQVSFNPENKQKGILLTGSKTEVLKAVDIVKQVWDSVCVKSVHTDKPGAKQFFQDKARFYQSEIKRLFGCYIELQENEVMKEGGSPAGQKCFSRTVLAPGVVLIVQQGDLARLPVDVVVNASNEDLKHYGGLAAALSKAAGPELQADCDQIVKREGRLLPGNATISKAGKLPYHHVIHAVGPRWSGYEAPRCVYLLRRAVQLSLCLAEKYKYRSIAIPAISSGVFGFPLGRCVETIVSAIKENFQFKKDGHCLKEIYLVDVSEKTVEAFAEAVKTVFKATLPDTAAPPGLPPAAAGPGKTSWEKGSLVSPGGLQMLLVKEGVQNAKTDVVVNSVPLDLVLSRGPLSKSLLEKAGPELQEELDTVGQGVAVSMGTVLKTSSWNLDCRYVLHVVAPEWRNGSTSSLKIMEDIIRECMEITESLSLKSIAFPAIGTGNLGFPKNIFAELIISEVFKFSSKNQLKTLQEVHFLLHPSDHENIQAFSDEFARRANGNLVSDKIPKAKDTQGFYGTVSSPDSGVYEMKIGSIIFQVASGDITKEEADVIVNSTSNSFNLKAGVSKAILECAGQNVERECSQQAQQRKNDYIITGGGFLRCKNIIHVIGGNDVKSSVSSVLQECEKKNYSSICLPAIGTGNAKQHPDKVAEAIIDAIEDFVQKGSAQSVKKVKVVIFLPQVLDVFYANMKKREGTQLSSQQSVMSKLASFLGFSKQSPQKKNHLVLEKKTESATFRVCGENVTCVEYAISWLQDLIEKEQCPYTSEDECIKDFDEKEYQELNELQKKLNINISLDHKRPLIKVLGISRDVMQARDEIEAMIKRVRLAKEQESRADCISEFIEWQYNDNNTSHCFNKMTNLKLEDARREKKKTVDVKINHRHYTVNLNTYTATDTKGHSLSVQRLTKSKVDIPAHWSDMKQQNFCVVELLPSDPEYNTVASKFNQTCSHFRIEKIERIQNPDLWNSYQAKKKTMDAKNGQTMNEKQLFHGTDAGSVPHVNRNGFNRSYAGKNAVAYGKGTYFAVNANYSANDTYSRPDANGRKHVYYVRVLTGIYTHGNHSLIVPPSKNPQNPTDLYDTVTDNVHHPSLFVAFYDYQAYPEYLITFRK

| SMILES | DC50 [nM] |
| --- | --- |
| O=C1CCC(Nc2ccc(N3CCC(N4CC(N5CCC(COc6cc(F)c7c(=O)[nH]c(CSC8CCOCC8)nc7c6)CC5)C4)CC3)c(C(F)(F)F)c2)C(=O)N1 (centres unmarked) [Example 230, 3-((4-(4-(3-(4-(((5-fluoro-4-oxo-2-(((tetrahydro-2H-pyran-4-yl)thio)methyl)-3,4-dihydroquinazolin-7-yl)oxy)methyl)piperidin-1-yl)azetidin-1-yl)piperidin-1-yl)-3-(trifluoromethyl)phenyl)amino)piperidine-2,6-dione] | < 30 |
| O=C1CCC(Nc2ccc(N3CCC(CN4CCC(N5CCC(COc6cc(F)c7c(=O)[nH]c(CSC8CCOCC8)nc7c6)CC5)CC4)CC3)c(F)c2)C(=O)N1 (centres unmarked) [Example 231, 3-((3-fluoro-4-(4-((4-(((5-fluoro-4-oxo-2-(((tetrahydro-2H-pyran-4-yl)thio)methyl)-3,4-dihydroquinazolin-7-yl)oxy)methyl)-[1,4′-bipiperidin]-1′-yl)methyl)piperidin-1-yl)phenyl)amino)piperidine-2,6-dione] | < 30 |
| O=C1CCC(Nc2ccc(N3CCC(N4CC(CN5CCC(COc6cc(F)c7c(=O)[nH]c(CSC8CCOCC8)nc7c6)CC5)C4)CC3)c(F)c2)C(=O)N1 (centres unmarked) [Example 232, 3-((3-fluoro-4-(4-(3-((4-(((5-fluoro-4-oxo-2-(((tetrahydro-2H-pyran-4-yl)thio)methyl)-3,4-dihydroquinazolin-7-yl)oxy)methyl)piperidin-1-yl)methyl)azetidin-1-yl)piperidin-1-yl)phenyl)amino)piperidine-2,6-dione] | < 30 |
| O=C1CCC(Nc2ccc(N3CCC(N4CC(N5CCC(CCOc6cc(F)c7c(=O)[nH]c(CSC8CCOCC8)nc7c6)CC5)C4)CC3)c(F)c2)C(=O)N1 (centres unmarked) [Example 235, 3-((3-fluoro-4-(4-(3-(4-(2-((5-fluoro-4-oxo-2-(((tetrahydro-2H-pyran-4-yl)thio)methyl)-3,4-dihydroquinazolin-7-yl)oxy)ethyl)piperidin-1-yl)azetidin-1-yl)piperidin-1-yl)phenyl)amino)piperidine-2,6-dione] | < 30 |

Continued, values first:

| DC50 [nM] | SMILES |
| --- | --- |
| < 30 | O=C1CCC(Nc2ccc(N3CCC(N4CC(N5CCC(COc6ccc7c(=O)[nH]c(CSC8CCOCC8)nc7c6)CC5)C4)CC3)c(F)c2)C(=O)N1 (centres unmarked) [Example 233, 3-((3-fluoro-4-(4-(3-(4-(((4-oxo-2-(((tetrahydro-2H-pyran-4-yl)thio)methyl)-3,4-dihydroquinazolin-7-yl)oxy)methyl)piperidin-1-yl)azetidin-1-yl)piperidin-1-yl)phenyl)amino)piperidine-2,6-dione] |
| < 30 | O=C1CCC(Nc2ccc(N3CCN(CCN4CCC(COc5cc(F)c6c(=O)[nH]c(CSC7CCOCC7)nc6c5)CC4)C(=O)C3)c(F)c2)C(=O)N1 (centres unmarked) [Example 234, 3-((3-fluoro-4-(4-(2-(4-(((5-fluoro-4-oxo-2-(((tetrahydro-2H-pyran-4-yl)thio)methyl)-3,4-dihydroquinazolin-7-yl)oxy)methyl)piperidin-1-yl)ethyl)-3-oxopiperazin-1-yl)phenyl)amino)piperidine-2,6-dione] |
| < 30 | O=C1CCC(Nc2ccc(F)c(N3CCC(N4CC(N5CCC(COc6cc(F)c7c(=O)[nH]c(CSC8CCOCC8)nc7c6)CC5)C4)CC3)c2)C(=O)N1 (centres unmarked) [Example 236, 3-((4-fluoro-3-(4-(3-(4-(((5-fluoro-4-oxo-2-(((tetrahydro-2H-pyran-4-yl)thio)methyl)-3,4-dihydroquinazolin-7-yl)oxy)methyl)piperidin-1-yl)azetidin-1-yl)piperidin-1-yl)phenyl)amino)piperidine-2,6-dione] |
| < 30 | O=C1CCC(Nc2ccc(N3CCC(N4CC(N5CCC(COc6cc(F)c7c(=O)[nH]c(CSC8CCCCC8)nc7c6)CC5)C4)CC3)c(F)c2)C(=O)N1 (centres unmarked) [Example 237, 3-({4-[4-(3-{4-[({2-[(cyclohexylsulfanyl)methyl]-5-fluoro-4-oxo-3H-quinazolin-7-yl}oxy)methyl]piperidin-1-yl}azetidin-1-yl)piperidin-1-yl]-3-fluorophenyl}amino)piperidine-2,6-dione formate] |
